In series [1] the test system is IL-4 release from D10.G4.1 cells. The series can be described thus: Inhibition of IL-4 release from D10.G4.1 cells (D10). It is filed as cell-based. The note with it: D10 cells stimulated with anti-CD3 antibody, IL-4 ELISA of supernatants. How it is done:
(§1) To determine the effect of the compounds according to the invention on the said cytokines, the inhibition of the release of IL-2,IL-4 and IL-5 from T cells was investigated in vitro.
3 days after thawing and cultivating D10 cells in medium (RPMI-1640 with HEPES/10% FCS/2 mM glutamine/100 U/m penicillin/100 mg/m streptomycin and 50 μM mercaptoethanol) with Rat Stim™ (Collaborative Biomedical Products, Bedford Mass.) they are spun down, washed with medium without Rat Stim™, seeded at a concentration of 40,000 to 60,000 cells per well in a microtitre plate and incubated at 37° C./5% CO2/100% humidity for 3.5 hours. The substances to be tested are then applied in various concentrations in each case 50μ per well. The determinations of the maximum value and spontaneous value each receive 50μ of medium/0.4% DMSO.
After a further 30 minutes of incubation, stimulation is carried out with in each case 50μ of anti-CD3 antibody (145-2C11, Cedarlane Laboratories Limited, Hornby/Ontario) per well (final dilution 1:100). The determination of the spontaneous value receives 50μ of medium. After incubation overnight, the supernatants are measured in an IL-4 ELISA (Pharmingen: capture mab: 18031D; detection mab: 18042 D). The IC50 determination was analysed by a logit-log plot.
(In general: ELISA stands for enzyme-linked immunosorbent assay.)

In series [2] the test system is IL-5 release from D10.G4.1 cells. Nature of the series: Inhibition of IL-5 release from D10.G4.1 cells (D10). It is filed as cell-based. The conditions noted are these: D10 cells stimulated with anti-CD3 antibody, IL-5 ELISA of supernatants. As for the experimental part: as §1
3 days after thawing and cultivating D10 cells in medium (RPMI-1640 with HEPES/10% FCS/2 mM glutamine/100 U/m penicillin/100 mg/m streptomycin and 50 μM mercaptoethanol) with Rat Stirm™ (Collaborative Biomedical Products, Bedford Mass.) they are spun down, washed with medium without Rat Stim™, seeded at a concentration of 40,000 to 60,000 cells per well in a microtitre plate and incubated at 37° C./5% CO2/100% humidity for 3.5 hours. The substances to be tested are then applied in various concentrations in each case 50μ per well. The determinations of the maximum value and spontaneous value each receive 50μ d of medium/0.4% DMSO. After a further 30 minutes of incubation, stimulation is carried out with in each case 50μ of anti-CD3 antibody (145-2C11, Cedarlane Laboratories Limited, Hornby/Ontario) per well (final dilution 1:100). The determination of the spontaneous value receives 50μ of medium. After incubation overnight, the supernatants are measured in an IL-5 ELISA (Pharmingen: capture mab: 18051D; detection mab: 18062 D). The IC50 determination was analysed by a logit-log plot.

In series [3] the test system is IL-2 release from Jurkat cells. Nature of the series: Inhibition of IL-2 release from Jurkat cells. It is filed as cell-based. The note with it: Homo sapiens; Jurkat cells stimulated with ionomycin/PMA, IL-2 ELISA of supernatants. How it is done:
as §1
Jurkat cells (clone E6-1, batch F-12871, from ATCC, Rockville, Md.) are seeded at about 100,000 cells in 50μ per well in microtitre plates and preincubated in an incubator (5% CO2/37° C./100% humidity). The medium employed is RPMI-1640 with HEPES/10% FCS/2 mM glutamine/100 U/m penicillin/100 mg/m streptomycin and 50 μM mercaptoethanol. After 3 hours, the substances to be tested are applied in various concentrations (100μ per well). To determine the spontaneous value and maximum values, in each case only medium/0.2% DMSO is applied. 30 minutes after application of substance and incubation, stimulation is carried out with in each case 25μ of ionomycin (final concentration 1 μM, Sigma I-0634) and phorbol myristate acetate (PMA, final concentration 25 ng/m, Sigma P-8139) per well. The spontaneous value receives 50μ of medium in place of ionomycin/PMA. Incubation overnight is then carried out. The supernatants are measured undiluted in an IL-2 ELISA (Pharmingen, capture mab: 18951 D detection mab: 20672 D). The IC50 determination was analysed by a logit-log plot.

Series [4] relates to pulmonary infiltration of eosinophils. Nature of the series: Inhibition of the late phase eosinophilia 24 h after challenge of actively sensitized guinea pigs by ovalbumin inhalation. The series is classed as in vivo, Dunkin-Hartley guinea pigs. The note with it: 10 mg/kg i.p. 2 h before challenge, bronchoalveolar lavage 24 h after ovalbumin challenge; for Eosinophils B = eosinophils in the substance-treated group with ovalbumin challenge: mean. How it is done:
The inhibition of the pulmonary infiltration of eosinophils by the substances is examined in an in vivo test on Dunkin-Hartley guinea pigs which have been actively sensitized against ovalbumin. The sensitization is effected by two subcutaneous injections of a suspension of 10 μg of ovalbumin together with 1 mg of aluminium hydroxide in 0.5 m of physiological saline as adjuvant at an interval of 14 days. 7 days after the second injection, the animals in the control group which are to be exposed to an ovalbumin aerosol are pretreated with mepyramine maleate (10 mg/kg i.p.) in order to protect from anaphylactic death. After 30 minutes, the animals are exposed in a plastic box for 30 sec to an ovalbumin aerosol (0.5 mg/m ) which is produced by an atomizer driven by compressed air (19.6 kPa). Control animals are exposed to an aerosol of physiological saline. 24 hours after the exposure to ovalbumin aerosol (challenge) the animals are anaesthetized with an overdose of ethylurethane (1.5 g/kg of body weight i.p.), and a bronchoalveolar lavage is carried out with 2×5 m of physiological saline. The lavage fluid is collected and centrifuged at 300 rpm for 10 min, and then the cell pellet is resuspended in 1 m of physiological saline. The eosinophils are stained using the Becton-Dickinson test kit (N.5877) for eosinophils and are counted in a Neubauer chamber. Each test includes 2 control groups (exposure to a physiological saline aerosol and exposure to an ovalbumin solution aerosol).
The test substances are administered intraperitoneally or orally as suspension in 10% polyethylene glycol 300 and 0.5% strength 5-hydroxyethylcellulose 2 hours before the allergen challenge. The control groups are treated with the vehicle in a form corresponding to the administration of the test substance. The number of animals in each control and test group is 3-10.

In general, IC50 refers to the concentration at which inhibition is half-maximal. Lower therefore signals higher potency. As to `COc1c2c(c(O)c3c1C(=O)c1c(cc(O)c(C)c1O)C3=O)-c1c(cc3cn[nH]c(=O)c3c1O)CC2` [Compound 1, 10,12,15,16-Tetrahydroxy-8-methoxy-11-methyl-9,14-dioxo-6,7,9,14-tetrahydronaphthaceno[1,2-g]phthalazin-1-one], the IC50 in series [1] is 860 nM; in series [2], 450 nM; in series [3], 80 nM. Further, in series [4], the “Inhibition (of late phase eosinophilia)” value is given as 112.4. In series [4], the “Eosinophils B = eosinophils in the substance-treated group with ovalbumin challenge” value is listed as 0.51 10^6/animal. For the compound `COc1c2c(c(O)c3c1C(=O)c1c(O)cc(O)cc1C3=O)-c1c(cc3c(C)nn(C)c(=O)c3c1O)CC2` [Compound 2, 2-Methyl-10,12,15,16-tetrahydroxy-8-methoxy-1-methyl-9,14-dioxo-6,7,9,14-tetrahydronaphthaceno[1,2-g]phthalazin-1-one], the values for the half-maximal inhibitory concentration (IC50) in series [1] and in series [2] were 1460 nM and 880 nM, respectively. Usually melting point stands for the temperature of the solid-liquid transition. In turn, `CCCn1ncc2cc3c(c(O)c2c1=O)-c1c(O)c2c(c(OC)c1CC3)C(=O)c1c(cc(O)c(C)c1O)C2=O` [Compound 3, 2-Propyl-10,12,15,16-tetrahydroxy-8-methoxy-11-methyl-9,14-dioxo-6,7,9,14-tetrahydronaphthaceno[1,2-g]phthalazin-1-one] showed a melting point of 350 to 351 °C. In addition, in series [1], half-maximal inhibition (IC50) was put at 2910 nM. `COc1c2c(c(O)c3c1C(=O)c1c(cc(O)c(C)c1O)C3=O)-c1c(cc3cnn(CCO)c(=O)c3c1O)CC2` [Compound 4, 2-(2-Hydroxyethyl)-10,12,15,16-tetrahydroxy-8-methoxy-11-methyl-9,14-dioxo-6,7,9,14-tetrahydronaphthaceno[1,2-g]phthalazin-1-one] showed a melting point greater than 300 °C. As to `COc1c2c(c(O)c3c1C(=O)c1c(cc(O)c(C)c1O)C3=O)-c1c(cc3cnn(-c4ccccc4)c(=O)c3c1O)CC2` [Compound 5, 2-phenyl-10,12,15,16-tetrahydroxy-8-methoxy-11-methyl-9,14-dioxo-6,7,9, 14-tetrahydronaphthaceno[1,2-g]phthalazin-1-one], the IC50 in series [2] came to 430 nM; in series [3], 200 nM. Besides, the “Inhibition (of late phase eosinophilia)” value in series [4] stood at 85.0. Moreover, the “Eosinophils B = eosinophils in the substance-treated group with ovalbumin challenge” value in series [4] is 0.85 10^6/animal. `COc1c2c(c(O)c3c1C(=O)c1c(cc(O)c(C)c1O)C3=O)-c1c(cc3cnn(CCOC(C)=O)c(=O)c3c1O)CC2` [Compound 6, 2-(2-Acetoxyethyl)-10,12,15,16-tetrahydroxy-8-methoxy-11-methyl-9,14-dioxo-6,7,9,14-tetrahydronaphthaceno[1,2-g]phthalazin-1-one]: the melting point was greater than 350 °C. Compound `COC(=O)Oc1cc2c(c(O)c1C)C(=O)c1c(OC)c3c(c(O)c1C2=O)-c1c(cc2cnn(-c4ccccc4)c(=O)c2c1O)CC3` [Compound 7, 2-Phenyl-10,15,16-trihydroxy-8-methoxy-12-methoxycarbonyloxy-11-methyl-9,14-dioxo-6,7,9,14-tetrahydronaphthaceno[1,2-g]phthalazin-1-one] came in with a melting point greater than 350 °C.

In the case of `COc1c2c(c(O)c3c1C(=O)c1c(cc(O)c(C)c1O)C3=O)-c1c(cc3cnn(CCN)c(=O)c3c1O)CC2` [Compound 8, 2-(2-Aminoethyl)-10,12,15,16-tetrahydroxy-8-methoxy-11-methyl-9,14-dioxo-6,7,9,14-tetrahydronaphthaceno[1,2-g]phthalazin-1-one], the melting point is > 350 °C (dec.). Further, the IC50 in series [1] was found to be 2580 nM. In series [2], this compound had an IC50 of 780 nM. Take `Cc1c(O)cc2c(c1O)C(=O)c1c(O)c3c(c(O)c1C2=O)-c1c(cc2cnn(-c4ccccn4)c(=O)c2c1O)CC3` [Compound 9, 2-(2-Pyridyl)-8,10,12,15,16-pentahydroxy-11-methyl-9,14-dioxo-6,7,9,14-tetrahydronaphthaceno[1,2-g]phthalazin-1-one]: the melting point is greater than 350 °C.

In turn, `Cc1c(O)cc2c(c1O)C(=O)c1c(O)c3c(c(O)c1C2=O)-c1c(cc2cnn(-c4ccccc4)c(=O)c2c1O)CC3` [Compound 10, 2-Phenyl-8,10,12,15,16-pentahydroxy-11-methyl-9,14-dioxo-6,7,9,14-tetrahydronaphthaceno[1,2-g]phthalazin-1-one] yielded a melting point greater than 350 °C. Turning to `CCOC(Cn1ncc2cc3c(c(O)c2c1=O)-c1c(O)c2c(c(OC)c1CC3)C(=O)c1c(cc(O)c(C)c1O)C2=O)OCC` [Compound 11, 2-(2,2-Diethoxyethyl)-10,12,15,16-tetrahydroxy-8-methoxy-11-methyl-9,14-dioxo-6,7,9,14-tetrahydronaphthaceno[1,2-g]phthalazin-1-one], the melting point is 285 °C.

`COc1c2c(c(OC(C)=O)c3c1C(=O)c1c(cc(OC(C)=O)c(C)c1OC(C)=O)C3=O)-c1c(cc3cnn(-c4ccccc4)c(=O)c3c1OC(C)=O)CC2` [Compound 12, 2-Phenyl-10,12,15,16-tetraacetoxy-8-methoxy-11-methyl-9,14-dioxo-6,7,9,14-tetrahydronaphthaceno[1,2-g]phthalazin-1-one] returned a melting point of 273 °C. On to `COc1c2c(c(O)c3c1C(=O)c1c(cc(O)c(C)c1O)C3=O)-c1c(cc3cnn(-c4ncc[nH]4)c(=O)c3c1O)CC2` [Compound 15, 2-(2-Imidazolyl)-10,12,15,16-tetrahydroxy-8-methoxy-11-methyl-9,14-dioxo-6,7,9,14-tetrahydronaphthaceno[1,2-g]phthalazin-1-one], for which the melting point is > 350 °C (dec.).

Turning to `COc1c2c(c(O)c3c1C(=O)c1c(cc(O)c(C)c1O)C3=O)-c1c(cc3cnn(-c4ccccn4)c(=O)c3c1O)CC2` [Compound 16, 2-(2-Pyridyl)-10,12,15,16-tetrahydroxy-8-methoxy-11-methyl-9,14-dioxo-6,7,9,14-tetrahydronaphtbaceno[1,2-g]phthalazin-1-one], in series [2], the 50% inhibitory concentration (IC50) is 520 nM. `C=CCc1cc2c(c(O)c1C)C(=O)c1c(OC)c3c(c(O)c1C2=O)-c1c(cc2cnn(-c4ccccc4)c(=O)c2c1O)CC3` [Compound 17, 2-Phenyl-12-allyl-10,15,16-trihydroxy-8-methoxy-11-methyl-9,14-dioxo-6,7,9,14-tetrahydronaphthaceno[1,2-g]phthalazin-1-one] registered a melting point of 163 °C.

The values above are taken from patent publication US6440968B1, “Use of maduraohtalazine derivatives as inhibitors of proinflammatory cytokines” (Elbion G.m.b.H., priority 1999, dated 2002).
